Source: patent US11459338B2, “Heterocyclic compounds as PRMT5 inhibitors” (JUBILANT EPISCRIBE LLC, priority 2018, dated 2022)

Legend:
PRMT5/MEP50 = target: T1, PRMT5/MEP50 (Homo sapiens, UniProt O14744); assay: PRMT5/MEP50 enzyme assay on peptide substrates (3H-SAM Flashplate); format: biochemical; settings: PRMT5/MEP50 10 nM, H4 1-15aa peptide 100 nM, 3H-SAM 1 μM
T1 construct: Full-length human PRMT5 (NP_006100)
Source text: General materials like S-adenocylmethionine (SAM), S-adenosylhomocysteine (SAH), Tris-HCl, DTT, […] (BSA) and Tween-20 were purchased from Sigma-Aldrich. 3H-SAM and 384-well streptavidin Flashplates were purchased from Perkin Elmer. Substrates that were used were Peptide representative of human Histone 4 residues 1-15 which was purchased from Rockland antibodies and assays.
PRMT5/MEP50 Enzyme assay on Peptide Substrates.
The assays were all performed in a buffer consisting of 50 mMTris-HCl, pH 8, 1 mM DTT, 0.01% BSA, 0.01% Tween-20, prepared on the day of use. Test compounds were diluted 3-fold in assay buffer (final DMSO concentration of 1%) and added into a 384-well OptiPlate (PerkinElmer, #6007290). A cocktail (10 μL) of PRMT5/MEP50 enzyme and the peptide was added to the wells. The compounds were allowed to incubate with PRMT5/MEP50 for 30 min at room temperature, then 5 μL of ^3H-SAM was added to initiate the reaction. The final concentrations of the components were as follows: PRMT5/MEP50-10 nM, H4, 1-15aa peptide-100 nM, ^3H-SAM-1 μM. The assays were stopped by the addition of 1 mM SAH. 25 μL of the reaction from the 384-well OptiPlate was then transferred to a 384-well Flashplate and the biotinylated peptides were allowed to bind to the streptavidin surface for at least 1 h, before being washed twice with 50 mMTris-HCl, pH 8, 0.1% Tween-20. The plates were then read in a PerkinElmer Topcount plate reader to measure the quantity of ^3H-labeled peptide bound to the Flashplate surface measured as disintegrations per minute (dpm), also referred to as counts per minute (cpm).
The IC50 values were calculated using a 4-parameter variable slope fit algorithm (cpm—counts per minute, cmpd—signal in assay well, and cpmmax and cpmmin mare the respective minimum and maximum signal controls).

Z-138 cells = assay: Z-138 long term proliferation assay (Cell Titer Glo); format: cell-based; settings: Homo sapiens, 192 h; Z-138 cells, cell viability, day 8; read-out: PRMT5 Z138 GI50 Day 8 μM
Protocol: A compound source plate was prepared by performing ten-point 3-fold dilution in DMSO, such that the final top concentration of the compound was 10 μM, and DMSO was 0.3%. The total volume of compounds added was 20 μL. The cells were incubated for 96 h at 37° C., 5% CO2. […] The cells were re-treated with the compounds and incubated for an additional four days. Cell viability was measured on both day 4 and day 8, by adding 25 μL of Cell Titer Glo reagent to an equal volume of cell suspension. Luminescence was read on a PerkinElmer Victor3 multiplate reader. The concentration of compound inhibiting cell viability by 50% was determined using a 4-parameter, variable slope fit of the normalized dose response curves.

T1 sequence (O14744 whole entry): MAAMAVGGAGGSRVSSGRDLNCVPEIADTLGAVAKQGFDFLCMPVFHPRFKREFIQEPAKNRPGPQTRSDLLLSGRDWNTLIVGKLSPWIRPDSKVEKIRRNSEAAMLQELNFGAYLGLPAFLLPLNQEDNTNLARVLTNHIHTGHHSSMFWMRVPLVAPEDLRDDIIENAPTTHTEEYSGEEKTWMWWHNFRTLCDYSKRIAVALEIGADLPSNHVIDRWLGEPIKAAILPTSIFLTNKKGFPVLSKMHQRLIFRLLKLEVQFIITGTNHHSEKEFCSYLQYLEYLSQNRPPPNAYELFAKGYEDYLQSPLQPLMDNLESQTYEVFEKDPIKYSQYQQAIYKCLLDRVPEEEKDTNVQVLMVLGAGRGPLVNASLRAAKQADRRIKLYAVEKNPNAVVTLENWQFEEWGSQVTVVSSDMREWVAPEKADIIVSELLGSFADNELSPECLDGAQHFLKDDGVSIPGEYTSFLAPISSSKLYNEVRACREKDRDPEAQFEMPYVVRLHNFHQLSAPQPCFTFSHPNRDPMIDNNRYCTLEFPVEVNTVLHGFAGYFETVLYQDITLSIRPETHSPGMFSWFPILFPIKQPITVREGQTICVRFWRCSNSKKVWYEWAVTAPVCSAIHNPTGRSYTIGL
T1 sequence (Q9BQA1 whole entry partner): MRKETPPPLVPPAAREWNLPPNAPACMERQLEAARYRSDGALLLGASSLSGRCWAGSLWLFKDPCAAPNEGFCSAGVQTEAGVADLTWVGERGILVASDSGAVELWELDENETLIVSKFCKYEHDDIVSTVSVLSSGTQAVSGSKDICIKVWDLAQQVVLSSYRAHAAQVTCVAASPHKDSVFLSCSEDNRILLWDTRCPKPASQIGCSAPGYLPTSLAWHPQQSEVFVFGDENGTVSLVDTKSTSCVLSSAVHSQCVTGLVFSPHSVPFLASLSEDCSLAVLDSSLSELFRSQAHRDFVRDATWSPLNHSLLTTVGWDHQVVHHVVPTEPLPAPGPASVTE

Row | SMILES | IC50 (PRMT5/MEP50) [nM] | GI50 (Z-138 cells) [nM]
1 | Cn1cc([C@@H]2CCc3nc(C(=O)NC[C@H](O)CN4CCc5ccccc5C4)cn3C2)cn1 [Example 120B, (S)—N—((S)-3-(3,4-dihydroisoquinolin-2(1H)-yl)-2-hydroxypropyl)-6-(1-methyl-1H-pyrazol-4-yl)-5,6,7,8-tetrahydroimidazo[1,2-a]pyridine-2-carboxamide] | 10 to 1000 | 1000 to 5000
2 | CN(C[C@H](O)CN1CCc2ccccc2C1)C(=O)c1cc2nc(C(F)(F)F)ccn2n1 [Example 90, (R)—N-(3-(3,4-dihydroisoquinolin-2(1H)-yl)-2-hydroxypropyl)-N-methyl-5-(trifluoromethyl)pyrazolo[1,5-a]pyrimidine-2-carboxamide] | 1000 to 5000 | > 5000
3 | Cc1cn2cc(C(=O)NC[C@H](O)CN3CCc4ccccc4C3)nc2cn1 [Example 57] | 1000 to 5000 | 1000 to 5000
4 | O=C(NC[C@H](O)CN1CCc2cc(F)ccc2C1)c1cn2nc(C(F)(F)F)ccc2n1 [Example 83, (S)—N-(3-(6-fluoro-3,4-dihydroisoquinolin-2(1H)-yl)-2-hydroxypropyl)-6-(trifluoromethyl)imidazo[1,2-b]pyridazine-2-carboxamide] | > 5000 | > 5000
5 | Cn1cc(-c2ccc3nc(C(=O)NC[C@H](O)CN4CCc5cc(F)ccc5C4)cn3c2)cn1 [Example 82, (S)—N-(3-(6-fluoro-3,4-dihydroisoquinolin-2(1H)-yl)-2-hydroxypropyl)-6-(1-methyl-1H-pyrazol-4-yl)imidazo[1,2-a]pyridine-2-carboxamide] | 1000 to 5000 | 1000 to 5000
6 | Cc1ccc2nc(C(=O)NC[C@H](O)CN3CCc4ccccc4C3)cn2n1 [Example 56, (S)—N-(3-(3,4-dihydroisoquinolin-2(1H)-yl)-2-hydroxypropyl)-6-methylimidazo[1,2-b]pyridazine-2-carboxamide] | 1000 to 5000 | > 5000
7 | CC(=O)N1CCC(c2ccc3nc(C(=O)NC[C@H](O)CN4CCc5ccccc5C4)cn3c2)CC1 [Example 27, (S)-6-(1-acetylpiperidin-4-yl)-N-(3-(3,4-dihydroisoquinolin-2(1H)-yl)-2-hydroxypropyl)imidazo[1,2-a]pyridine-2-carboxamide] | 10 to 1000 | 10 to 1000
8 | O=C(NCC(O)CNC1Cc2ccccc2C1)c1cn2cc(C3CCOCC3)ccc2n1 (stereo not shown) [Example 97, N-(3-((2,3-dihydro-1H-inden-2-yl)amino)-2-hydroxypropyl)-6-(tetrahydro-2H-pyran-4-yl)imidazo[1,2-a]pyridine-2-carboxamide] | 10 to 1000 | 10 to 1000
9 | Cc1c(C(=O)NC[C@H](O)CN2CCc3ccccc3C2)nc2cnc(-c3cnn(C)c3)cn12 [Example 64, (S)—N-(3-(3,4-dihydroisoquinolin-2(1H)-yl)-2-hydroxypropyl)-3-methyl-6-(1-methyl-1H-pyrazol-4-yl)imidazo[1,2-a]pyrazine-2-carboxamide] | 10 to 1000 | 10 to 1000
10 | Cc1ccn2nc(C(=O)NC[C@H](O)CN3CCc4ccccc4C3)c(F)c2n1 [Example 67] | 1000 to 5000 | > 5000
11 | Cn1cc(-c2ccc3nc(C(=O)NC[C@H](O)CN4CCc5ccccc5C4)cn3c2)ccc1=O [Example 34, (S)—N-(3-(3,4-dihydroisoquinolin-2(1H)-yl)-2-hydroxypropyl)-6-(1-methyl-6-oxo-1,6-dihydropyridin-3-yl)imidazo[1,2-a]pyridine-2-carboxamide] | 10 to 1000 | 10 to 1000
12 | CC(=O)N1CCC(C2CCc3nc(C(=O)NC[C@H](O)CN4CCc5ccccc5C4)cn3C2)CC1 (single isomer, unassigned) [Example 118A] | 10 to 1000 | 10 to 1000
13 | CN(C[C@H](O)CN1CCc2ccccc2C1)C(=O)c1cn2c(n1)CCC(C(F)(F)F)C2 (stereo partly shown) [Example 119] | 10 to 1000 | 10 to 1000
14 | CN(C[C@H](O)CN1CCc2ccccc2C1)C(=O)c1cn2nc(C(F)(F)F)ccc2n1 [Example 91, (R)—N-(3-(3,4-dihydroisoquinolin-2(1H)-yl)-2-hydroxypropyl)-N-methyl-6-(trifluoromethyl)imidazo[1,2-b]pyridazine-2-carboxamide] | 1000 to 5000 | > 5000
15 | O=C(NC[C@H](O)[C@@H](O)CN1CCc2ccccc2C1)c1cn2cc(C(F)(F)F)ccc2n1 [Example 76, N-((2S,3S)-4-(3,4-dihydroisoquinolin-2(1H)-yl)-2,3-dihydroxybutyl)-6-(trifluoromethyl)imidazo[1,2-a]pyridine-2-carboxamide] | 10 to 1000 | 10 to 1000
16 | O=C(NC[C@@H](O)[C@H](O)CN1CCc2ccccc2C1)c1cn2cc(C(F)(F)F)ccc2n1 [Example 77, N-((2R,3R)-4-(3,4-dihydroisoquinolin-2(1H)-yl)-2,3-dihydroxybutyl)-6-(trifluoromethyl)imidazo[1,2-a]pyridine-2-carboxamide] | 10 to 1000 | 10 to 1000
17 | O=C(NC[C@H](O)CN1CCc2ccccc2C1)c1cn2cc(C3(O)COC3)ccc2n1 [Example 61, (S)—N-(3-(3,4-dihydroisoquinolin-2(1H)-yl)-2-hydroxypropyl)-6-(3-hydroxyoxetan-3-yl)imidazo[1,2-a]pyridine-2-carboxamide] | 1000 to 5000 | 1000 to 5000
18 | O=C(NC[C@H](O)CN1CCc2ccccc2C1)c1cn2cc(N3CCOCC3)ccc2n1 [Example 72, (S)—N-(3-(3,4-dihydroisoquinolin-2(1H)-yl)-2-hydroxypropyl)-6-morpholinoimidazo[1,2-a]pyridine-2-carboxamide] | 10 to 1000 | 1000 to 5000
19 | N#Cc1ccc2nc(C(=O)NC[C@H](O)CN3CCc4ccccc4C3)cn2c1 [Example 123, (S)-6-cyano-N-(3-(3,4-dihydroisoquinolin-2(1H)-yl)-2-hydroxypropyl)imidazo[1,2-a]pyridine-2-carboxamide] | 10 to 1000 | 10 to 1000
20 | Cc1c(C(=O)NC[C@H](O)CN2CCc3ccccc3C2)nc2ccc(C(F)(F)F)nn12 [Example 54, (S)—N-(3-(3,4-dihydroisoquinolin-2(1H)-yl)-2-hydroxypropyl)-3-methyl-6-(trifluoromethyl)imidazo[1,2-b]pyridazine-2-carboxamide] | 1000 to 5000 | 1000 to 5000
21 | Cn1cc(-c2cn3cc(C(=O)NC[C@H](O)CN4CCc5ccccc5C4)nc3cn2)ccc1=O [Example 51, (S)—N-(3-(3,4-dihydroisoquinolin-2(1H)-yl)-2-hydroxypropyl)-6-(1-methyl-6-oxo-1,6-dihydropyridin-3-yl)imidazo[1,2-a]pyrazine-2-carboxamide] | 10 to 1000 | 10 to 1000
22 | Cc1c(C(=O)NC[C@H](O)CN2CCc3ccccc3C2)nc2cnc(-c3ccn(C)c(=O)c3)cn12 [Example 65, (S)—N-(3-(3,4-dihydroisoquinolin-2(1H)-yl)-2-hydroxypropyl)-3-methyl-6-(1-methyl-2-oxo-1,2-dihydropyridin-4-yl)imidazo[1,2-a]pyrazine-2-carboxamide] | 10 to 1000 | 10 to 1000
23 | CC(=O)N1CCC(c2cn3cc(C(=O)NC[C@H](O)CN4CCc5ccccc5C4)nc3cn2)CC1 [Example 52, (S)-6-(1-acetylpiperidin-4-yl)-N-(3-(3,4-dihydroisoquinolin-2(1H)-yl)-2-hydroxypropyl)imidazo[1,2-a]pyrazine-2-carboxamide] | 10 to 1000 | 10 to 1000
24 | CC(C)c1nc(-c2ccc3nc(C(=O)NC[C@H](O)CN4CCc5ccccc5C4)cn3c2)no1 [Example 24, (S)—N-(3-(3,4-dihydroisoquinolin-2(1H)-yl)-2-hydroxypropyl)-6-(5-isopropyl-1,2,4-oxadiazol-3-yl)imidazo[1,2-a]pyridine-2-carboxamide] | 10 to 1000 | 10 to 1000
25 | O=C(NC[C@H](O)CN1CCc2ccccc2C1)c1cn2cc(C(F)(F)F)ncc2n1 [Example 53, (S)—N-(3-(3,4-dihydroisoquinolin-2(1H)-yl)-2-hydroxypropyl)-6-(trifluoromethyl)imidazo[1,2-a]pyrazine-2-carboxamide] | 10 to 1000 | 1000 to 5000
26 | Cn1ccc(-c2cn3cc(C(=O)NC[C@H](O)CN4CCc5cc(F)ccc5C4)nc3cn2)cc1=O [Example 85, (S)—N-(3-(6-fluoro-3,4-dihydroisoquinolin-2(1H)-yl)-2-hydroxypropyl)-6-(1-methyl-2-oxo-1,2-dihydropyridin-4-yl)imidazo[1,2-a]pyrazine-2-carboxamide] | 1000 to 5000 | 1000 to 5000
